From patent US4876260A, “Oxathiolanes” (State of Israel, Israel Institute of Biological Research, priority 1988, dated 1989)
Several values for one entry are separate records, joined by “and”; a condition that tells them apart may be missing. Equal entries are not always repeated. Entries after “also recorded” stand apart in the source; their conditions may differ. Where two headings read alike, the source gives them in different places.

Key:
[1] = tested on: isolated guinea-pig ileum; test: Contraction of isolated guinea-pig ileum preparation; conditions: listed as AF122A
From the text: (§1) From this Table, it appears that compounds (III) were not so effective in contracting the guinea pig ileum preparation.

[2] = biological target: T1, M1 muscarinic receptors (3H-PZ sites, frontal cortex) (Rattus norvegicus, UniProt P08482); test: Displacement of 3H-PZ from rat frontal cortex homogenate; assay type: binding; conditions: for a':c', Ki(3H-PZ):Ki(3H-CD): (g) frontal cortex ratio
T1 sequence (P08482 1-460): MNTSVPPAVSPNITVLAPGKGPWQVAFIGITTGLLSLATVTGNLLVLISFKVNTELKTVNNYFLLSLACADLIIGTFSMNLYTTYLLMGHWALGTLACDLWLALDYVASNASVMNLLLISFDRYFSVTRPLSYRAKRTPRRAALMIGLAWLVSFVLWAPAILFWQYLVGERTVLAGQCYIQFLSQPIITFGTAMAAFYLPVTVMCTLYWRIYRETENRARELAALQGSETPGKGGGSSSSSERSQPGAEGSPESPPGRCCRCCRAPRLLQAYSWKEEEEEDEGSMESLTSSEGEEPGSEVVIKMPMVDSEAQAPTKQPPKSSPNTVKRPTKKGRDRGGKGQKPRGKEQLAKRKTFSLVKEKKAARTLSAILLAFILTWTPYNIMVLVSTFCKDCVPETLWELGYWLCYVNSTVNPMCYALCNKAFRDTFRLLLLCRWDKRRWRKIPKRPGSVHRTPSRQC

[3] = biological target: muscarinic receptors (3H-QNB sites, frontal cortex); assay type: binding, rat; conditions: (b') frontal cortex
[4] = tested on: ACh-induced contractions of guinea-pig ileum; test: Blocking of ACh-induced contractions of isolated guinea-pig ileum; conditions: listed as AF122A
From the text: as §1

[5] = tested on: muscarinic receptors (3H-QNB sites, cerebellum, mainly M2); test: biochemical; assay type: binding, rat; conditions: for b':b": (k) Ki(3H-QNB) frontal cortex : Ki(3H-QNB) cerebellum
[6] = biological target: T2, muscarinic receptors (3H-QNB sites, cerebellum, mainly M2) (Rattus norvegicus, UniProt P10980); test: biochemical; assay type: binding; conditions: Ki(3H-QNB), (b") cerebellum
T2 sequence (P10980 1-466): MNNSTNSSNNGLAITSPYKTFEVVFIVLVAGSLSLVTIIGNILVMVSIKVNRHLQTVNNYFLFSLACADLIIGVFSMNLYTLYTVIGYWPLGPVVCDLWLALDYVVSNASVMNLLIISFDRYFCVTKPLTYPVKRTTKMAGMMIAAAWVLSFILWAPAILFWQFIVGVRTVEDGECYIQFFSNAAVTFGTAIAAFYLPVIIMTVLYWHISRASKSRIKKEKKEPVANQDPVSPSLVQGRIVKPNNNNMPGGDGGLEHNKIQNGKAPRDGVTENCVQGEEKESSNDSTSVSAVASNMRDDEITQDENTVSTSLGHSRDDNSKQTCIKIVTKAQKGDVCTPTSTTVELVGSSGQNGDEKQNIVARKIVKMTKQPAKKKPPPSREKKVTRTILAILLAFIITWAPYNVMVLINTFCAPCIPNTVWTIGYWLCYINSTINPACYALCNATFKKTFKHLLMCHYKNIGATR

mice = test: Pharmacodynamic profile and general toxicity in mice; assay type: in vivo, CD-1 mice
Method: Male white mice of the CD-1 strain supplied by Charles River Ltd. (U.K.) were used throughout. An acclimatization period of at least three days was allowed between arrival and commencement of a particular experimental series. The animals were fed a complete commercial pelleted rodent diet without restriction during the acclimatization and study periods. Animals had free access to tap water. Body weights during testing were mostly within 20-28 g.
Test materials were prepared as aqueous solutions in physiological saline (0.9% NaCl), up to a maximum concentration of 10 mg./ml. All materials were freshly prepared on the morning prior to each dosing session. Dosages were expressed gravimetrically (mg./kg.), in terms of the materials as received.
Groups of mice (mostly n=5) received either i.v. or oral administration of the test materials at various dose levels. Dose volumes appropriate for respective dose levels selected, were determined for each animal according to body weights on the day of dosing. Any behavioral changes occurring during one to two hours after administration, as well as incidence of death up to 24 hours after dosing were recorded.

[7] = biological target: muscarinic receptors (3H-CD sites, M1 and M2, forebrain); test: Displacement of 3H-cis-dioxolane (3H-CD, non-selective M1 and M2 agonist) from rat forebrain homogenate; assay type: binding
[8] = biological target: T3, M1 muscarinic receptors (3H-PZ sites, forebrain) (Rattus norvegicus, UniProt P08482); test: Displacement of 3H-Pirenzepine (3H-PZ, selective M1 antagonist) from rat forebrain homogenate; assay type: binding
T3 sequence (P08482 1-460): T1 sequence (P08482 1-460)

all muscarinic receptors = conditions: cited from earlier work
[9] = biological target: muscarinic receptors (3H-QNB sites, M1 and M2, forebrain); assay type: binding, rat; conditions: (b) forebrain
[10] = biological target: muscarinic receptors (3H-CD sites, frontal cortex); test: Displacement of 3H-CD from rat frontal cortex homogenate; assay type: binding; conditions: (c') frontal cortex
[11] = 25 mg/kg i.v., listed as (±)-III AF122A
[12] = 100 mg/kg p.o., listed as (±)-III AF122A
[13] = 200 mg/kg p.o., listed as (±)-III AF122A

Compound: CC1OCC2(CN3CCC2CC3)S1 (stereo not shown) [compound 11, 2-methylspiro(1,3-oxathiolan-4,3')quinuclidine]
- Contraction of guinea pig ileum (in words) [1]: did not produce any significant contractions in the concentration range within which it binds to the brain receptors
- a':b', Ki(3H-PZ):Ki(3H-QNB) [2]: 0.09
- Ki ([2]; (a') frontal cortex, read-out: Ki(3H-PZ)): 840 ± 30 nM
- a':c', Ki(3H-PZ):Ki(3H-CD) [2]: 1.0
- Ki [3]: 9700 ± 2300 nM
- Effect on ACh-induced contractions (in words) [4]: perturbed the ACh-induced contractions when applied in relatively high concentrations
- b':b" [5]: 0.49
- Ki [6]: 19800 ± 6100 nM
- Analgesia (nonresponsiveness to tail pinch), No. affected/total treated (mice; 10 mg/kg i.v.): 2/5
- Vocalization, No. affected/total treated (mice; 10 mg/kg i.v.): 2/5
- Mortality, No. dead/total treated (mice; 10 mg/kg i.v., listed as (±)-III AF122A): 0/5
- Vocalization, No. affected/total treated (mice; 25 mg/kg i.v.): 3/6
- Analgesia (nonresponsiveness to tail pinch), No. affected/total treated (mice; [11]): 4/5
- Convulsive seizures, No. affected/total treated (mice; [11]): 1/6
- Exophthalmus, No. affected/total treated (mice; [11]): 3/6
- Mortality, No. dead/total treated (mice; [11]): 1/6
- Respiratory distress, No. affected/total treated (mice; [11]): 4/6
- Tremors, No. affected/total treated (mice; [11]): 3/6
- Mortality, time after drug administration (mice; 25 mg/kg i.v., m = minutes): 1 m
- Convulsive seizures, No. affected/total treated (mice; 50 mg/kg i.v.): 2/2
- Mortality, No. dead/total treated (mice; 50 mg/kg i.v.): 2/2
- Mortality, time after drug administration (mice; 50 mg/kg i.v.): 5 s
- Mortality, No. dead/total treated (mice; 50 mg/kg p.o.): 0/5
- Mortality, No. dead/total treated (mice; 100 mg/kg i.v.): 2/2
- Mortality, time after drug administration (mice; 100 mg/kg i.v., immed = immediately): immed
- Mortality, No. dead/total treated (mice; [12]): 0/5
- Tremors, No. affected/total treated (mice; [12]): 5/5
- Mortality, time after drug administration (mice; 200 mg/kg p.o.): 30 s
- Convulsive seizures, No. affected/total treated (mice; [13]): 5/5
- Mortality, No. dead/total treated (mice; [13]): 5/5
- Tremors, No. affected/total treated (mice; [13]): 5/5
- Ki ([7]; Table 2B column (c'), footnote *forebrain): 750 nM
- M1 selectivity (in words) ([8]; from Tables 2A, 2B, 2C): high M1 selectivity

Compound: O=C1CCCN1CC#CCN1CCCC1 [compound 1, Oxotremorine]
- a':b', Ki(3H-PZ):Ki(3H-QNB) ([2]; (f) frontal cortex ratio): 0.1
- a':c', Ki(3H-PZ):Ki(3H-CD) [2]: 137.5
- Ki ([2]; Ki(3H-PZ)): 220 ± 70 nM
- Ki [3]: 2200 ± 300 nM
- affinity towards all muscarinic receptors (in words) (all muscarinic receptors): greater than those of the weaker agonists McN-A-343 or compound #3
- Ki [9]: 2100 ± 300 nM
- a:b" ([5]; (h) Ki(3H-PZ) forebrain : Ki(3H-QNB) cerebellum): 0.86
- b:b" ([5]; (j) Ki(3H-QNB) forebrain : Ki(3H-QNB) cerebellum): 3.00
- b':b" [5]: 1.69
- order of M1 versus M2 selectivity, IC50 (FB):IC50 (CER) or IC50 (frontal cortex):IC50 (CER) ([5]; FB=forebrain, CER=cerebellum): compound #4>compound #3>oxotremorine
- Ki [6]: 700 nM and 1310 nM
- Ki ([7]; (c) forebrain, * in M × 10^-10): 0.96 ± 0.42 nM
- Ki [10]: 1.6 ± 0.4 nM
- order of the ratios Ki(3H-PZ):Ki(3H-CD) [8]: oxotremorine >McN-A-343>compound # 3; also recorded: weakest relative affinity towards M1 binding sites
- a:b, Ki(3H-PZ):Ki(3H-QNB) ([8]; (d) forebrain ratio): 0.29
- order of the ratios Ki(3H-PZ):Ki(3H-QNB) ([8]; forebrain, among oxotremorine, McN-A-343, compound #3): McN-A-343 >compound #3>oxotremorine; also recorded: relatively stronger than McN-A-343 and compound #3
